Results from patent US12065468B2, “Heme-binding small peptide” (priority 2021, dated 2024).
Entries after “also recorded” stand apart in the source; their conditions may differ.

Assays:
[1] = UV-Vis spectroscopy / colour change on heme addition; assay type: binding
Experimental: Heme preparation: Hemin solutions were always prepared in 0.1 M NaOH and used within 30 min of preparation. 1:1000 and 1:500 dilution of the stock solution was made and stock concentration was measured by pyridine hemochrome assay as described previously^85 by measuring the absorption at 557 nm using the extinction coefficient of pyridine hemochromogen (34.7 mM^−1 cm^−1).
UV-VIS spectroscopy: All absorption spectra were collected in a Tecan Spark™ 10 M microplate reader using black polystyrene 96-well plates. Absorbance from 300 nm to 700 nm was recorded with a 5 nm interval after an initial shaking at 100 rpm for 15 secs. Heme binding to synthesized peptide: Water (pH 7.4) was used in all reactions and was first added to the wells. Peptides solubilized in water were added and then heme solubilized in 0.1 M NaOH was added, mixed thoroughly and measurements were taken immediately. Peptide and heme volume were kept to a maximum of 5 ul in volume. For all the absorption curves (except Extended FIG. 3a) […] was used. The same was also repeated with 0.1 M Tris buffer (pH 7.4) as a base buffer instead of water.

Porphyromonas gingivalis = assay: Cell viability assay for P. gingivalis; assay type: cell-based; settings: 48 hours, anaerobic, Brucella Broth
Experimental: Cell viability assays for H. influenza and P. gingivalis: Haemophilus influenzae Rd [KW20] was obtained from ATCC (51907). Standard growth and culturing techniques were followed as described previously^92. Cultures were grown in Brain Heart Infusion broth (BHI) supplemented with 7.5 μM of hemin and 2 μg/ml NAD with or without the addition of peptide for 24 hours. The number of viable cells for every reaction mixture was then determined by serially diluting and spotting 10-μl aliquots in triplicates on BHI agar plates supplemented with 15 μM hemin and 3 μM NAD. Porphyromonas gingivalis 2561 was obtained from ATCC (33277). Pre-reduced, anaerobically sterilized Brucella Broth and BRU—Brucella Blood Agar—were purchased from Anaerobe systems (CA, USA). They were opened just before use. Static cultures and plates were incubated at 37° C. in an incubation chamber from BD GasPak™ EZ Container Systems. Anaerobic conditions were maintained by using BD BBL CO2 gas generators and BD BB GasPak™ CO2 indicators. Cultures were grown anaerobically in Brucella Broth with or without addition of peptides for 48 hours and viable cells for every reaction mixture were then determined by serially diluting and spotting 10-μ1 aliquots in triplicates on Brucella Blood Agar.

Aβ (1-42)-heme complex = biological target: T1, Aβ (1-42)-heme complex (Homo sapiens, UniProt P05067); assay: Peroxidase assay of Aβ-heme complex on TMB; assay type: biochemical; settings: equimolar addition of NCR247
T1 construct: equimolar addition of NCR247 to the Aβ (1-42) amyloid peptide-heme complex; purchased Genscript
T1 sequence (P05067 672-713 limits assumed, one chain of several): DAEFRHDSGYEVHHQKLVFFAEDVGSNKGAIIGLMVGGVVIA

[2] = system: iron uptake genes (hmuP, foxA, fhuP, rhrA, fbpA), rirA; assay: qRT-PCR of iron-related genes in S. meliloti; assay type: cell-based, Sinorhizobium meliloti; settings: 30 mins; for expression of iron uptake genes: 2 μM (NSR247 up to 15 uM)
Experimental: RNA isolation and qRT-PCR analysis: Cells were grown in LB until they reached an O.D.600 nm of 0.2. Then cells were spun down and suspended in minimal media with or without appropriate FeSO4 concentrations for 1 hour. NCR247 was then added and 5 ml of appropriate cultures were spun down at given time intervals. Total RNA was extracted using Trizol™ (Thermo Fisher Scientific) method. Qiagen RNeasy™ kit was used to purify the RNA. On-column DNA removal was carried out using DNase I from NEB. 500 ng of each RNA sample was used to make cDNA using the iScript™ cDNA synthesis kit (Biorad). qRT-PCRs were performed as described previously^86. The standard curve method was used for relative quantification. In short, a standard curve was generated for each gene of interest (including SMc00128) by setting up qpCR reactions to amplify increasing amounts of S. meliloti Rm 1021 genomic DNA. […] This curve was then used for extrapolating relative expression level of each gene of interest in a particular sample to obtain the starting quantities (SQ). This value is then normalized to the SQ values of SMc00128 obtained for respective sample. […] These normalized values are then expressed as an average of triplicates, with standard deviation (s.d.) represented by the error bars.

S. meliloti = assay: Radioactive 55Fe uptake assay; assay type: cell-based, Sinorhizobium meliloti; settings: 2 μM, medium with sufficient iron
Experimental: Iron uptake assay: Radioactive ^55Fe uptake assays were performed as described previously^66 with some modifications. Cells were grown in LB to an O.D.600 nm of 0.2. 20 ml cultures were then spun down, and suspended in 20 ml minimal media with 5 μM FeSO4 for 1 hour. 2 μM NCR247 and then 100 μM sodium ascorbate was added, and cells were incubated for additional 30 mins. At time 0, 1 μM^55FeCl3 mixed with ascorbate was added. At given time points, 1 ml aliquots were taken and quenched in 3 ml of ice-cold quench buffer (0.1M Tris, 1 mM ascorbate, and 100 μM FeSO4, pH 6.0). The cells were collected immediately after quenching on 0.45-μm filters, presoaked in quench buffer using a Millipore sigma 1225 vacuum filtration unit. The radioactive ^55Fe content of the filters with cells was counted using a scintillation counter. Internalized ^55Fe levels were normalized to the protein levels in the cell.

Candida albicans = assay: C. albicans biofilm formation; assay type: cell-based
Z-ring (FtsZ-GFP) = assay: Z-ring formation, FtsZ-GFP fluorescent microscopy; assay type: cell-based, Sinorhizobium meliloti; settings: 2 μM, 200 mins; listed as L-NCR247
Experimental: FIG. 15. […] Visualization of Z-ring formation during cell division by FtsZ-GFP labeled cells using fluorescent microscopy. Data indicates percentage of cells displaying fully formed Z-rings when synchronized and treated with upon treatment with 2 μM of L or D-NCR247 for 200 mins. […] Data are presented as average of three biological replicates ±s.d.
Since NCR247 treatment leads to gene expression change in several genes of the CtrA regulon, we investigated the CtrA regulon and the cell division inhibition role of NCR247. […] In addition, this phenotype is retained in a peptide transporter bacA mutant indicating cell division inhibition happens due to protein-peptide interaction outside the cytoplasm.

ribosomal machinery = assay: In-vitro translation assay, GFP production; assay type: biochemical; settings: increasing concentrations; fluorescence and western blot; listed as L-NCR247
Text: FIG. 19. Interaction of NCR247 with ribosomal machinery leads to modification in translational capability. (A) In-vitro translation assay to measure GFP production with increasing concentrations of L or D-NCR247. […] (B) Western blot to measure the amount of GFP produced using Anti-GFP antibody.
Interaction of NCR247 with ribosomal machinery leads to modification in translational capability. To see if this is due to chiral interaction, we performed in-vitro translation assay and used GFP production and measured fluorescence as a read out. We also performed a western blot to measure the amount of GFP produced using Anti-GFP antibody.

RNGCIVDPRCPYQQCRRPLYCRRR [NCR247]
heme binding (absorption peaks 366 nm, ~450 nm; colour change) ([1]; heme added to peptide, ferric heme): bound within seconds; also recorded: binds heme | binding of ferrous heme ([1]; sodium dithionite-reduced Fe(II) heme): binds sodium dithionite-reduced Fe(II) ferrous heme | growth / viable cell number of P. gingivalis (Porphyromonas gingivalis): can prevent the growth | growth / viable cell number of P. gingivalis (Porphyromonas gingivalis; listed as L-NCR247): Reduction of viable cell number | peroxidase activity of Aβ (1-42)-heme complex (Aβ (1-42)-heme complex): quenches its peroxidase activity | expression of iron uptake genes [2]: increase in transcript levels of iron uptake genes | expression of iron uptake genes ([2]; listed as L-NCR247): increase in expression of hmuP | expression of rirA ([2]; 2 μM): rirA transcription was reduced | uptake of 55Fe (S. meliloti): markedly increased the import of ^55Fe | C. albicans biofilm formation (Candida albicans): interferes with the ability of the opportunistic fungal pathogen Candida albicans to form biofilms; also recorded: can inhibit Candida albicans biofilms | formation of Z-ring (Z-ring (FtsZ-GFP)): results in inhibition of assembly of the Z-ring; also recorded: greatly reduced | production of GFP (ribosomal machinery): inhibition of production of GFP; also recorded: Fluorescence units decreased
